Assay results as given in ChEMBL document CHEMBL1201862, “PubChem BioAssay data set” (2004).
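Cultured in 96-well plates, cells were exposed to test compound for 48 hours across five concentrations. The concentration for 50% growth inhibition is given as GI50.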 The source made the active and inactive calls. No stated cut-off is given here; in the data, active = GI50 up to about 1.1 µM and inactive = higher. Square brackets hold non-standard residues; d marks the D form. Peptide text beside a SMILES is read from it. * marks the point of attachment. AllylGly = C=CC[CH](N)C(=O)O; Boc = CC(C)(C)OC(=O)*; OtBu = CC(C)(C)O*

Key:
Experiment in all cases: growth of human tumour cells (NCI), 48 h
SF-268 = test system: SF-268
OVCAR-3 = test system: OVCAR-3
HOP-92 = test system: HOP-92
UACC-257 = test system: UACC-257
RXF 393 = test system: RXF 393
PC-3 = test system: PC-3
MCF7 = test system: MCF7
MDA-MB-435 = test system: MDA-MB-435
HT-29 = test system: HT-29
M14 = test system: M14
786-0 = test system: 786-0
IGROV-1 = test system: IGROV-1
SW-620 = test system: SW-620
EKVX = test system: EKVX
COLO 205 = test system: COLO 205
HCC 2998 = test system: HCC 2998
OVCAR-4 = test system: OVCAR-4
T47D = test system: T47D
LOX IMVI = test system: LOX IMVI

OCC1OC(n2cnc3c(SCc4ccccc4)ncnc32)C(O)C1O (stereo not given)
GI50 (SF-268): 21.2 µM (inactive)
GI50 (OVCAR-3): 6.61 µM (inactive)
GI50 (HOP-92): 4.75 µM (inactive)
GI50 (UACC-257): > 100 µM (inactive)
GI50 (RXF 393): 20.2 µM (inactive)
GI50 (PC-3): 4.94 µM (inactive)
GI50 (MCF7): 3.08 µM (inactive)
GI50 (MDA-MB-435): > 100 µM (inactive)
GI50 (HT-29): 5.52 µM (inactive)
GI50 (M14): 99.3 µM (inactive)
GI50 (786-0): 27.5 µM (inactive)
GI50 (IGROV-1): > 89.1 µM (inactive)
GI50 (SW-620): 21.6 µM (inactive)
GI50 (EKVX): > 68.5 µM (inactive)
GI50 (COLO 205): 14 µM (inactive)
GI50 (HCC 2998): 8.24 µM (inactive)
GI50 (OVCAR-4): 11.8 µM (inactive)
GI50 (T47D): 40.5 µM (inactive)
GI50 (LOX IMVI): 2.13 µM (inactive)

N=C(N)SCc1cccc2c(=O)cc(-c3ccccc3)oc12
GI50 (SF-268): 12.4 µM (inactive)
GI50 (OVCAR-3): 6.97 µM (inactive)
GI50 (HOP-92): 4.03 µM (inactive)
GI50 (UACC-257): 10.9 µM (inactive)
GI50 (RXF 393): 4.79 µM (inactive)
GI50 (PC-3): 4.54 µM (inactive)
GI50 (MCF7): 2.73 µM (inactive)
GI50 (MDA-MB-435): 8.02 µM (inactive)
GI50 (HT-29): 4.84 µM (inactive)
GI50 (M14): 5.28 µM (inactive)
GI50 (786-0): 3.9 µM (inactive)
GI50 (IGROV-1): 6.32 µM (inactive)
GI50 (SW-620): 4.37 µM (inactive)
GI50 (EKVX): 8.75 µM (inactive)
GI50 (COLO 205): 3.78 µM (inactive)
GI50 (HCC 2998): 12 µM (inactive)
GI50 (OVCAR-4): 7.24 µM (inactive)
GI50 (T47D): 3.75 µM (inactive)
GI50 (LOX IMVI): 12.2 µM (inactive)

Cc1ccc2c3ccc4c(c3n(C)c2c1)C(=O)C=CC4=O
GI50 (SF-268): > 10 µM (inactive)
GI50 (OVCAR-3): 2.52 µM (inactive)
GI50 (HOP-92): 3.1 µM (inactive)
GI50 (UACC-257): 6.67 µM (inactive)
GI50 (RXF 393): 4.25 µM (inactive)
GI50 (PC-3): > 10 µM (inactive)
GI50 (MCF7): 3.29 µM (inactive)
GI50 (MDA-MB-435): 5.86 µM (inactive)
GI50 (HT-29): > 10 µM (inactive)
GI50 (M14): 3.66 µM (inactive)
GI50 (786-0): 2.33 µM (inactive)
GI50 (IGROV-1): > 10 µM (inactive)
GI50 (SW-620): 1.74 µM (inactive)
GI50 (EKVX): > 10 µM (inactive)
GI50 (COLO 205): 2.5 µM (inactive)
GI50 (HCC 2998): > 10 µM (inactive)
GI50 (OVCAR-4): > 5.12 µM (inactive)
GI50 (T47D): 2.43 µM (inactive)
GI50 (LOX IMVI): > 10 µM (inactive)

CCCCCCNC(=O)c1cc(NCc2cc(OC)ccc2OC)ccc1O
GI50 (SF-268): 13.3 µM (inactive)
GI50 (OVCAR-3): 0.865 µM (active)
GI50 (HOP-92): 6.98 µM (inactive)
GI50 (UACC-257): 16.9 µM (inactive)
GI50 (RXF 393): 18.7 µM (inactive)
GI50 (PC-3): 20.2 µM (inactive)
GI50 (MCF7): 22.1 µM (inactive)
GI50 (MDA-MB-435): 18.9 µM (inactive)
GI50 (HT-29): 31.3 µM (inactive)
GI50 (M14): 18.7 µM (inactive)
GI50 (786-0): 27.9 µM (inactive)
GI50 (IGROV-1): 21.3 µM (inactive)
GI50 (SW-620): 30.7 µM (inactive)
GI50 (EKVX): 23.9 µM (inactive)
GI50 (COLO 205): 19 µM (inactive)
GI50 (HCC 2998): 26.6 µM (inactive)
GI50 (OVCAR-4): 22.8 µM (inactive)
GI50 (T47D): 13.5 µM (inactive)
GI50 (LOX IMVI): 16.6 µM (inactive)

C=CCC(NC(=O)C(CC(=O)OC(C)(C)C)NC(=O)OC(C)(C)C)C(=O)OC (stereo not given) (Boc-Asp(OtBu)-[AllylGly]-OMe; configuration not given here)
GI50 (SF-268): 51.2 µM (inactive)
GI50 (OVCAR-3): 24.7 µM (inactive)
GI50 (HOP-92): > 78.2 µM (inactive)
GI50 (UACC-257): 24 µM (inactive)
GI50 (RXF 393): 99.3 µM (inactive)
GI50 (PC-3): > 100 µM (inactive)
GI50 (MCF7): 55.8 µM (inactive)
GI50 (MDA-MB-435): > 53.2 µM (inactive)
GI50 (HT-29): > 100 µM (inactive)
GI50 (M14): 20.2 µM (inactive)
GI50 (786-0): > 100 µM (inactive)
GI50 (IGROV-1): > 100 µM (inactive)
GI50 (SW-620): 56.1 µM (inactive)
GI50 (EKVX): > 100 µM (inactive)
GI50 (COLO 205): 21.1 µM (inactive)
GI50 (HCC 2998): 25.9 µM (inactive)
GI50 (OVCAR-4): > 100 µM (inactive)
GI50 (T47D): 37.6 µM (inactive)
GI50 (LOX IMVI): 20.9 µM (inactive)

CCOP1(=O)CC(C)=C(Cl)C(O)C1 (stereo not given)
GI50 (SF-268): > 100 µM (inactive)
GI50 (OVCAR-3): > 100 µM (inactive)
GI50 (HOP-92): > 100 µM (inactive)
GI50 (UACC-257): > 100 µM (inactive)
GI50 (RXF 393): > 100 µM (inactive)
GI50 (PC-3): > 100 µM (inactive)
GI50 (MCF7): > 100 µM (inactive)
GI50 (MDA-MB-435): > 100 µM (inactive)
GI50 (HT-29): > 100 µM (inactive)
GI50 (M14): > 100 µM (inactive)
GI50 (786-0): > 100 µM (inactive)
GI50 (IGROV-1): > 100 µM (inactive)
GI50 (SW-620): > 100 µM (inactive)
GI50 (EKVX): > 100 µM (inactive)
GI50 (COLO 205): > 100 µM (inactive)
GI50 (HCC 2998): > 100 µM (inactive)
GI50 (OVCAR-4): > 100 µM (inactive)
GI50 (T47D): > 100 µM (inactive)
GI50 (LOX IMVI): > 100 µM (inactive)

CC12CC3(O)OC(O1)C1(COC(=O)c4ccccc4)C3CC21OC1OC(CO)C(O)C(O)C1O (stereo not given)
GI50 (SF-268): > 100 µM (inactive)
GI50 (OVCAR-3): > 100 µM (inactive)
GI50 (HOP-92): > 100 µM (inactive)
GI50 (UACC-257): > 100 µM (inactive)
GI50 (RXF 393): > 100 µM (inactive)
GI50 (PC-3): > 100 µM (inactive)
GI50 (MCF7): > 100 µM (inactive)
GI50 (MDA-MB-435): > 100 µM (inactive)
GI50 (HT-29): > 100 µM (inactive)
GI50 (M14): > 100 µM (inactive)
GI50 (786-0): > 100 µM (inactive)
GI50 (IGROV-1): > 100 µM (inactive)
GI50 (SW-620): > 100 µM (inactive)
GI50 (EKVX): > 100 µM (inactive)
GI50 (COLO 205): > 100 µM (inactive)
GI50 (HCC 2998): > 100 µM (inactive)
GI50 (OVCAR-4): > 100 µM (inactive)
GI50 (T47D): > 100 µM (inactive)
GI50 (LOX IMVI): > 100 µM (inactive)

c1ccc2c(OCC3CO3)ccc(OCC3CO3)c2c1 (stereo not given)
GI50 (SF-268): 0.571 µM (active)
GI50 (OVCAR-3): 1.38 µM (inactive)
GI50 (HOP-92): 5.57 µM (inactive)
GI50 (UACC-257): 7.14 µM (inactive)
GI50 (RXF 393): 2.63 µM (inactive)
GI50 (PC-3): 4.76 µM (inactive)
GI50 (MCF7): 0.897 µM (active)
GI50 (MDA-MB-435): 2.44 µM (inactive)
GI50 (HT-29): 4.82 µM (inactive)
GI50 (M14): 3.38 µM (inactive)
GI50 (786-0): 2.11 µM (inactive)
GI50 (IGROV-1): 3.44 µM (inactive)
GI50 (SW-620): 1.26 µM (inactive)
GI50 (EKVX): 17.4 µM (inactive)
GI50 (COLO 205): 10.6 µM (inactive)
GI50 (HCC 2998): 11.8 µM (inactive)
GI50 (OVCAR-4): 7.05 µM (inactive)
GI50 (T47D): 1.91 µM (inactive)
GI50 (LOX IMVI): 0.515 µM (active)

COC(=O)C1=C(OC(=O)/C=C/c2ccccc2)C(C(=O)OC)[C@@]2(O)[C@@H](C(=O)OC)[C@H](C)C[C@@H]1[C@@H]2C(=O)OC (stereo not given in full)
GI50 (SF-268): 24.2 µM (inactive)
GI50 (OVCAR-3): 19.9 µM (inactive)
GI50 (HOP-92): 20.4 µM (inactive)
GI50 (UACC-257): 20.1 µM (inactive)
GI50 (RXF 393): 4.05 µM (inactive)
GI50 (PC-3): 25.5 µM (inactive)
GI50 (MCF7): 19.3 µM (inactive)
GI50 (MDA-MB-435): 15.6 µM (inactive)
GI50 (HT-29): 24.7 µM (inactive)
GI50 (M14): 25.5 µM (inactive)
GI50 (786-0): 17.1 µM (inactive)
GI50 (IGROV-1): 25 µM (inactive)
GI50 (SW-620): 28.3 µM (inactive)
GI50 (EKVX): 15.5 µM (inactive)
GI50 (COLO 205): 28.8 µM (inactive)
GI50 (HCC 2998): 19.4 µM (inactive)
GI50 (OVCAR-4): 18.2 µM (inactive)
GI50 (T47D): 24.5 µM (inactive)
GI50 (LOX IMVI): 22.1 µM (inactive)

C[C@@H]1S[C@H](c2c(F)cccc2Cl)n2c1nc1ccccc12
GI50 (SF-268): 15.1 µM (inactive)
GI50 (OVCAR-3): 14.9 µM (inactive)
GI50 (HOP-92): > 10 µM (inactive)
GI50 (UACC-257): 14.1 µM (inactive)
GI50 (RXF 393): 14.5 µM (inactive)
GI50 (PC-3): 6.84 µM (inactive)
GI50 (MCF7): 25.2 µM (inactive)
GI50 (MDA-MB-435): 12.6 µM (inactive)
GI50 (HT-29): 14.7 µM (inactive)
GI50 (M14): 15.2 µM (inactive)
GI50 (786-0): 14.8 µM (inactive)
GI50 (IGROV-1): 17.2 µM (inactive)
GI50 (SW-620): 13.7 µM (inactive)
GI50 (EKVX): 22.1 µM (inactive)
GI50 (COLO 205): 11.2 µM (inactive)
GI50 (HCC 2998): 13.6 µM (inactive)
GI50 (OVCAR-4): 18.5 µM (inactive)
GI50 (T47D): 22.5 µM (inactive)
GI50 (LOX IMVI): 12.5 µM (inactive)
